For one experiment, the target named is Cathepsin L (Homo sapiens, UniProt P07711). Kind of experiment: Cathepsin L enzyme assay. It is filed as biochemical. To be noted: Ki by Morrison equation; pH 5.5, substrate Z-Phe-Arg-Amc; read-out: Cat L. An excerpt:
Two wells contained DMSO only for controls.
Velocity was converted to μM/sec.

The target in a further experiment is Calpain. As to the kind of experiment: Calpain enzyme assay. Particulars: Ki by Morrison equation; pH 7.5, 5 mM CaCl2. It is filed as biochemical.
For experiment [1], the system named is EBOV WT (Ebola Wild Type). As to the kind of experiment: microbe, parasite or virus in culture. It is filed as cell-based. To be noted: Zaire ebolavirus, read-out: EBOV WT (μM) (Ebola Wild Type).
Another experiment relates to MERS WT. Kind of experiment: microbe, parasite or virus in culture. Type of experiment: cell-based. To be noted: Middle East respiratory syndrome-related coronavirus, read-out: MERS WT (μM).
The target in another experiment is Cathepsin B (Homo sapiens, UniProt P07858). Kind of experiment: Cathepsin B enzyme assay. Particulars: Cat B (μM), Ki by Morrison equation; pH 6.0, substrate Z-Phe-Arg-Amc.
The next experiment deals with Cat S (Homo sapiens, UniProt P25774). As to the kind of experiment: Cat S inhibition. It is filed as biochemical.

*1 amine or outer side, *2 acyl side, *3 side chain or, on linkers, in order; H or OH if unused. Where a SMILES comes first, the peptide text is derived from it. [ ]: non-standard residue; d: D form. The star is where a group is joined. 2Nal = N[CH](Cc1ccc2ccccc2c1)C(=O)O; X2 = C=CCOCC(N[*:1])C(=O)C(=O)[*:2]; Ser(allyl) = C=CCOC[CH](N)C(=O)O; PhAc = O=C(Cc1ccccc1)*

The values below come from US20190085024A1, “Alpha-Ketoamide Inhibitors Of Cysteine Proteases” (Phelix Therapeutics, priority 2017, published 2019).

Chain of Cat S (P25774 115-331): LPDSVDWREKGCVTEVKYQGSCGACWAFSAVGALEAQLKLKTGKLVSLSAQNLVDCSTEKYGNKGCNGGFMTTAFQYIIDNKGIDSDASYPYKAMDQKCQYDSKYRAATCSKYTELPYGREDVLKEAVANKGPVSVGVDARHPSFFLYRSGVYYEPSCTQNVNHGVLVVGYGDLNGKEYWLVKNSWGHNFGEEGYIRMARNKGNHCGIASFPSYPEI
Chain of Cathepsin L (P07711 114-333, species assumed): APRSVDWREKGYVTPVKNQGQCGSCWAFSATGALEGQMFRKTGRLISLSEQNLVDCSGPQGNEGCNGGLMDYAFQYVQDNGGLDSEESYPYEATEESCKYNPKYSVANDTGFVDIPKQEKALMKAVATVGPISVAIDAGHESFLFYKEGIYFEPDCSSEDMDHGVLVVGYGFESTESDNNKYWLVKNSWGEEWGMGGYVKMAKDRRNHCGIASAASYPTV

As to `C=CCOCC(NC(=O)Cc1ccccc1)C(=O)NC(CC(C)C)C(=O)NC(COCC=C)C(=O)C(=O)NCC(=O)NC(Cc1ccc2ccccc2c1)C(N)=O` (stereo not drawn) [PHELIX200, 2-(3-(allyloxy)-2-(2-phenylacetamido)propanamido)-N-(1-(allyloxy)-4-((2-((1-amino-3-(naphthalen-2-yl)-1-oxopropan-2-yl)amino)-2-oxoethyl)amino)-3,4-dioxobutan-2-yl)-4-methylpentanamide] (PhAc-[Ser(allyl)]L[X2]G[2Nal]-NH2; configuration not given here), the values for the Ki on Cathepsin L, at Calpain and at Cathepsin B were 1.51 nM, 0.00657 µM and 0.0881 µM, respectively. The IC50 in experiment [1] is 6.4 µM; with MERS WT, over 10 µM.

`CC(C)CC(=O)NC(Cc1ccccc1)C(=O)NC(C)C(=O)C(=O)NC(Cc1ccccc1)C(=O)NC(C)(C)C(N)=O` (stereo not drawn) [PHELIX235, N-(1-((1-amino-2-methyl-1-oxopropan-2-yl)amino)-1-oxo-3-phenylpropan-2-yl)-3-(2-(3-methylbutanamido)-3-phenylpropanamido)-2-oxobutanamide]: the Ki on Cathepsin L is 236 nM; on Cat S it was 28.9 nM; on Calpain, over 10 µM; at Cathepsin B it was 0.644 µM.

Take `CC(NC(=O)C(Cc1cccnc1)NC(=O)Cc1ccccc1)C(=O)C(=O)NC(Cc1ccccc1)C(=O)NC(C)(C)C(N)=O` (stereo not drawn) [PHELIX211, N-(1-((1-amino-2-methyl-1-oxopropan-2-yl)amino)-1-oxo-3-phenylpropan-2-yl)-2-oxo-3-(2-(2-phenylacetamido)-3-(pyridin-3-yl)propanamido)butanamide]: the Ki on Cathepsin L is 218 nM; at Calpain, over 10 µM; on Cathepsin B, 0.532 µM. In addition, the IC50 in experiment [1] is 209 µM; with MERS WT, over 10 µM.

With `CCCCC(NC(=O)C(=O)C(C)NC(=O)C(Cc1ccccc1)NC(=O)Cc1ccccc1)C(=O)NC(C)(C)C(N)=O` (stereo not drawn) [PHELIX242, N-(1-amino-2-methyl-1-oxopropan-2-yl)-2-(2-oxo-3-(3-phenyl-2-(2-phenylacetamido)propanamido)butanamido)hexanamide], the Ki at Cathepsin L was 7520 nM; at Cat S, 555 nM; at Calpain it was over 10 µM; at Cathepsin B, over 10 µM.

Regarding `C=CCOCC(NC(=O)C(=O)C(COCC=C)NC(=O)C(CC(C)C)NC(=O)OCc1ccccc1)C(=O)NC(Cc1ccc2ccccc2c1)C(N)=O` (stereo not drawn) [PHELIX228, benzyl (1-((1-(allyloxy)-4-((3-(allyloxy)-1-((1-amino-3-(naphthalen-2-yl)-1-oxopropan-2-yl)amino)-1-oxopropan-2-yl)amino)-3,4-dioxobutan-2-yl)amino)-4-methyl-1-oxopentan-2-yl)carbamate], the Ki at Cathepsin L was 0.08 nM; on Calpain, 0.0253 µM; at Cathepsin B it was 0.276 µM. Further, the IC50 in experiment [1] was determined as 3.02 µM.

For `CC(NC(=O)C(Cc1ccccc1)NC(=O)Cc1ccccc1)C(=O)C(=O)NC(Cc1ccc(-c2ccccc2)cc1)C(=O)NC(C)(C)C(N)=O` (stereo not drawn) [PHELIX241, N-(3-([1,1′-biphenyl]-4-yl)-1-((1-amino-2-methyl-1-oxopropan-2-yl)amino)-1-oxopropan-2-yl)-2-oxo-3-(3-phenyl-2-(2-phenylacetamido)propanamido)butanamide], the Ki on Cathepsin L was 1360 nM; at Cat S, 2740 nM; at Calpain, over 10 µM; at Cathepsin B it was over 10 µM.

For `CCCCC(=O)NC(Cc1ccccc1)C(=O)NC(C)C(=O)C(=O)NC(Cc1ccccc1)C(=O)NC(C)(C)C(N)=O` (stereo not drawn) [PHELIX236, N-(1-((4-((1-((1-amino-2-methyl-1-oxopropan-2-yl)amino)-1-oxo-3-phenylpropan-2-yl)amino)-3,4-dioxobutan-2-yl)amino)-1-oxo-3-phenylpropan-2-yl)pentanamide], the Ki on Cathepsin L was 1720 nM; at Cat S, 260 nM; on Calpain it was over 10 µM; at Cathepsin B, over 10 µM.
